Assay results from patent publication US20090270407A1, “FUNGICIDAL ISOXAZOLIDINES” (E. I. DU PONT DE NEMOURS AND COMPANY, priority 2008, published 2009).
Marks after values point to notes of the source that are not given here.

Columns and labels:
Details in all cases: 40 ppm (marked *); 100 = 100 % disease control, 0 = no disease control relative to controls
Septoria nodorum = test: Test C: wheat glume blotch, preventive spray on wheat seedlings, visual disease rating
Protocol: (An asterisk “*” next to the rating value indicates a 40 ppm test suspension.)
The test suspension was sprayed to the point of run-off on wheat seedlings. The following day the seedlings were inoculated with a spore suspension of Septoria nodorum (the causal agent of wheat glume blotch) and incubated in a saturated atmosphere at 20° C. for 48 h, and then moved to a growth chamber at 20° C. for 7 days, after which time visual disease ratings were made.
(§1) A dash (−) indicates no test results. All results are for 200 ppm except where followed by “*” which indicates 40 ppm.

[1] = test system: Puccinia recondita f. sp. tritici; test: Test B: wheat leaf rust, preventive spray on wheat seedlings, visual disease rating
Source text: General protocol for preparing test suspensions for Tests A-I: The test compounds were first dissolved in acetone in an amount equal to 3% of the final volume and then suspended at the desired concentration (in ppm) in acetone and purified water (50/50 mix) containing 250 ppm of the surfactant Trem® 014 (polyhydric alcohol esters). The resulting test suspensions were then used in Tests A-I. Spraying a 200 ppm test suspension to the point of run-off on the test plants was the equivalent of a rate of 500 g/ha.
The test suspension was sprayed to the point of run-off on wheat seedlings. The following day the seedlings were inoculated with a spore suspension of Puccinia recondita f. sp. tritici (the causal agent of wheat leaf rust) and incubated in a saturated atmosphere at 20° C. for 24 h, and then moved to a growth chamber at 20° C. for 7 days, after which time visual disease ratings were made.
All results are for 200 ppm except where followed by “*” which indicates 40 ppm.

Botrytis cinerea = test: Test E: tomato Botrytis, preventive spray on tomato seedlings, visual disease rating
Alternaria solani = test: Test F: tomato early blight, preventive spray on tomato seedlings, visual disease rating
Source text: (§2) General protocol for preparing test suspensions for Tests A-I: The test compounds were first dissolved in acetone in an amount equal to 3% of the final volume and then suspended at the desired concentration (in ppm) in acetone and purified water (50/50 mix) containing 250 ppm of the surfactant Trem® 014 (polyhydric alcohol esters). The resulting test suspensions were then used in Tests A-I. Spraying a 200 ppm test suspension to the point of run-off on the test plants was the equivalent of a rate of 500 g/ha. (An asterisk “*” next to the rating value indicates a 40 ppm test suspension.)
The test suspension was sprayed to the point of run-off on tomato seedlings. The following day the seedlings were inoculated with a spore suspension of Alternaria solani (the causal agent of tomato early blight) and incubated in a saturated atmosphere at 27° C. for 48 h, and then moved to a growth chamber at 20° C. for 5 days, after which time visual disease ratings were made.
as §1

Septoria tritici = test: Test D: wheat leaf blotch, preventive spray on wheat seedlings, visual disease rating; assay type: in vivo
Source text: A dash (−) indicates no test results.

[2] = test system: Erysiphe graminis f. sp. tritici; test: Test A: wheat powdery mildew, preventive spray on wheat seedlings, visual disease rating
Source text: as §2
The test suspension was sprayed to the point of run-off on wheat seedlings. The following day the seedlings were inoculated with a spore dust of Erysiphe graminis f. sp. tritici (the causal agent of wheat powdery mildew) and incubated in a growth chamber at 20° C. for 8 days, after which time visual disease ratings were made.

SMILES	Test C disease control rating (Septoria nodorum)	Test B disease control rating [1]	Test E disease control rating (Botrytis cinerea)	Test F disease control rating (Alternaria solani)	Test D disease control rating (Septoria tritici)	Test A disease control rating [2]
Cc1ccn(-c2ccc(C3CC(C)(c4cccnc4)ON3C)cc2)n1 (stereo not drawn) [Compound 42]	100* %	9* %	99* %	97* %	88* %	71* %
Cc1ccn(-c2ccc(C3CC(C)(c4cccnc4)ON3C)cc2)n1 (stereo not drawn) [Compound 43]	90* %	0* %	88* %	52* %	79* %	0* %
CN1OC(c2cccnc2)(C(F)(F)F)CC1c1ccc(-n2ccc(C(F)(F)F)n2)cc1 (stereo not drawn) [Compound 44]	69* %	19* %	0* %	0* %	89* %	100* %
CN1OC(c2cccnc2)(C(F)(F)F)CC1c1ccc(-n2ccc(C(F)(F)F)n2)cc1 (stereo not drawn) [Compound 45]	0* %	0* %	0* %	0* %	52* %	96* %
CN1OC(C)(c2cccnc2)CC1c1ccc(-n2ccc(-c3cccs3)n2)cc1 (stereo not drawn) [Compound 46]	0* %	0* %	78* %	0* %	62* %	0* %
CN1OC(C)(c2cccnc2)CC1c1ccc(-n2ccc(-c3cccs3)n2)cc1 (stereo not drawn) [Compound 47]	0* %	0* %	0* %	0* %	42* %	35* %
CN1OC(C)(c2cccnc2)CC1c1ccc(-n2ccc(-c3ccc(Br)cc3)n2)cc1 (stereo not drawn) [Compound 48]	0* %	0* %	20* %	0* %	43* %	61* %
CN1OC(C)(c2cccnc2)CC1c1ccc(-n2ccc(-c3ccc(Br)cc3)n2)cc1 (stereo not drawn) [Compound 49]	0* %	0* %	0* %	0* %	27* %	61* %
Cc1cc(C)n(-c2ccc(C3CC(C)(c4cccnc4)ON3C)cc2)n1 (stereo not drawn) [Compound 50]	87* %	0* %	84* %	0* %	73* %	0* %
Cc1cc(C)n(-c2ccc(C3CC(C)(c4cccnc4)ON3C)cc2)n1 (stereo not drawn) [Compound 51]	0* %	0* %	0* %	0* %	32* %	0* %
CN1OC(C)(c2cccnc2)CC1c1ccc(-c2cncnc2)cc1 (stereo not drawn) [Compound 52]	99* %	0* %	92* %	59* %	76* %	0* %
CN1OC(C)(c2cccnc2)CC1c1ccc(-c2cncnc2)cc1 (stereo not drawn) [Compound 53]	0* %	0* %	25* %	31* %	68* %	0* %
CN1OC(C)(c2cccnc2)CC1c1ccc(-c2cccs2)cc1 (stereo not drawn) [Compound 54]	98* %	9* %	99* %	99* %	79* %	71* %
CN1OC(C)(c2cccnc2)CC1c1ccc(-c2cccs2)cc1 (stereo not drawn) [Compound 55]	84* %	0* %	97* %	85* %	93* %	61* %
CN1OC(C)(c2cccnc2)CC1c1ccc(-n2cc(I)cn2)cc1 (stereo not drawn) [Compound 56]	99* %	0* %	94* %	91* %	74* %	52* %
